Earlier results as cited in patent US4305927A, “Method for the management of intraocular pressure” (ALZA Corporation, priority 1980, dated 1981).

Test system: carbonic anhydrase

Compound: CC(=O)Nc1nnc(S(N)(=O)=O)s1 [acetazolamide, 5-acetamido-1,3,4-thiadiazole-2-sulfonamide]
- action on carbonic anhydrase: enzyme inhibitor that acts on carbonic anhydrase
